# Assays:
# wild-type leaf sections = assay: Leaf section test on RMOP culture medium containing glyphosate, wild type control; type: cell-based, tobacco; details: RMOP medium containing 100 μm glyphosate (Glyphosate-isopropylammonium); three-week-old cultures
# Description: (§1) Shown are three-week-old cultures initiated from Nt-pMHB125 and Nt-pMHB126 leaves and wild type control. The culture medium and general tissue culture protocols are described in references Svab and Maliga, 1993; and Lutz et al., 2006.
# (§2) The ability of leaf sections or stem sections of plants to germinate and/or grow as green plants in a culture containing selective levels of herbicides is a reliable assay of glyphosate resistance (Ye et al. (2003) Plant Physiol., 133:402-410; Ye et al. (2001) Plant J., 25:261-270). Selective levels of glyphosate in the culture medium were in the range of 50 μm to 200 μm, to which plants expressing the CP4 EPSPS gene were resistant. Therefore, sections of the Nt-pMHB125, Nt-pMHB126 and Nt-pMHB127 leaves were inoculated onto RMOP medium containing 100 μm glyphosate (Glyphosate-isopropylammonium). […] Such high level of resistance was sufficient to protect the plants from glyphosate treatment under filed conditions. The new glyphosate resistance (GAT) genes, when expressed in plastids, enable efficient weed control with an environmentally friendly herbicide. Since plastids are not transmitted via pollen in most crops, the GAT gene will not be disseminated via pollen, providing an efficient containment tool (Bock, R. (2001) J. Mol. Biol., 312:425-438; Maliga, P. (2004) Annu. Rev. Plant Biol., 55:289-313).
# [1] = system: Nt-pMHB125 and Nt-pMHB126 leaves (tobacco cells expressing GAT in chloroplasts); assay: Leaf section test on RMOP culture medium containing glyphosate, plants expressing GAT in chloroplasts; type: cell-based
# Description: as §1, §2
structure (smiles),measurement,setting,value
"O=C(O)CNCP(=O)(O)O [glyphosate, N-phosphonomethylglycine]",growth of wild-type leaf sections in the presence of the herbicide,wild-type leaf sections,failed to grow and bleached
same,resistance of tobacco cells expressing GAT in chloroplasts,"[1]; 100 μM glyphosate in the RMOP culture medium, three-week-old cultures from Nt-pMHB125 and Nt-pMHB126 leaves",resistant
same,growth of Nt-pMHB125 and Nt-pMHB126 leaf sections in the presence of the herbicide,"[1]; RMOP medium containing 100 μm glyphosate (Glyphosate-isopropylammonium), three-week-old cultures",formed abundantly proliferating green calli

# Reference: patent publication US20080044904A1, “Glyphosate N-acetyltransferase (GAT) confers glyphosate resistance when expressed in plastids” (priority 2005, published 2008)
